The values below come from US20020169296A1, “Linked, sequence-specific DNA-binding molecules” (priority 2000, published 2002).

Test [1] relates to Drosophila satellite III chromatin (topoisomerase II cleavage). Briefly: Topoisomerase II cleavage in satellite III of Kc nuclei in Xenopus egg extracts with VM26. Format: biochemical. The following applies: for concentration giving massive cleavage stimulation: P31 at 500 nM comparable to P9 at 62 nM (lowest tested).
The next test has as its system satellite III chromatin. Briefly: Restriction enzyme (HaeIII) cleavage within satellite III chromatin. In kind it is biochemical, Drosophila. The note with it: data not shown. From the text: Satellite III repeats contain near the topoisomerase II cleavage site a HaeIII restriction sequence. […] We made a similar observation using P9 (data not shown).
Test [2] has as its system sperm nuclei (condensation to chromatids). Briefly: Chromosome condensation of sperm nuclei in mitotic Xenopus egg extracts. Format: biochemical. From the text:
Mitotic Xenopus egg extracts convert added nuclei and sperm to chromatids in vitro. This chromosome condensation process requires topoisomerase II (Adachi et al., 1991), the protein complex condensin (Hirano T, 1997) and presumably other unidentified activities present in the mitotic extract. First, chromatin is remodeled and nuclei then proceed quite synchronously through a number of morphologically distinguishable steps (Hirano and Mitchison, 1991). Remodeling is morphological manifested by swelling of the nuclei which involves exchange of basic sperm-specific proteins for H2A/H2B and the incorporation of histone B4 (Dimitrov S, 1994).
Pyrrole drugs were added to the extract together with the sperm or after the remodeling step (at 10 minutes) and the extent of condensation was determined after 120 min. At this time point, the conversion of all sperm nuclei to clusters of individual chromatids is complete in the absence of drug (FIG. 8A, control). […] Addition of this compound at 125 to 250 nM (indicated) arrested this process at the so-called early ‘ruffle’ stage (FIG. 8A). These structures retain the swollen sperm shape, but they have peripheral blebs (ruffles) and a slightly heterogeneous interior. At this drug concentration, no chromatids are seen. If the concentration of Lex10 is raised to 500 nM, we observed an even earlier arrest as evidenced by the accumulation of swollen, remodeled sperm-shaped nuclei containing a homogeneous interior and smooth periphery. […] The monomer P7 was also tested but we observed no inhibition with the pyrrole pentamer up to the highest concentration (8 μM) tested. Condensation was inhibited at a ruffle stage with a P9 concentration of 2 μM (not shown).
In the experiment shown in FIG. 8B, Lex10 was added to the extract at a final concentration of 1 μM (several fold above the minimum inhibitory concentration) after which competitor oligonucleotides were added at different stages. Three different oligonucleotides of similar size were used: the SAR oligo contains two large clustered AT-tracts of the SAR probe (W17N5W15), the W9 oligo has a single AT tract of 9 base pairs and the GAGAA oligo harbors 5 tandem GAGAA repeats.
Topoisomerase II inhibition and chromosome assembly were as described previously (Girard et al., 1998, Strick and Laemmli, 1995). Affinity cleavage experiments was performed as described elsewhere (Turner et al., 1997).

For test [3], the system named is W9 probe (isolated 9 bp AT-tract). Briefly: DNase I footprinting on W9 probe. Format: binding. An excerpt:
To target AT-tracts, the principal component of satellite I, III and SARs), a pyrrole pentamer was synthesized by facile solid phase chemistry in which five pyrrole (Py) aromatic amino acid rings are linked covalently by amide bonds (Baird and Dervan, 1996). The resulting compound, termed P7 had the sequence Py-Py-Py-Py-Py-β-Dp (where β=β-alanine and Dp=dimethylaminopropylamide). This compound is expected to bind 7 successive A or T base pairs (Ws) according to the n+1 rule where n is the number of amides (Youngquist and Dervan, 1985). The DNA binding properties of P7 were assessed by DNAse I footprinting experiments using a synthetic probe containing isolated, repeated AT-tracts of 9 Ws (W9, FIG. 2A). By visual inspection, the apparent dissociation constant (Kapp) for P7 was estimated to be approximately 80 nM (Table 3).
were hybridized to obtain the W9 probe, oligomerized by ligation and digested with BamHl and BglII to obtain different tandem repeats. The following oligonucleotides were prepared identically:
(§1) Fragments were purified on low-melt agarose gels and then cloned into a modified pSP64 vector, cut by BamHI and BglII. End-labeling was carried out following digestion with HindIII and a fill-in reaction with Klenow DNA polymerase. The labeled plasmid was cut with PvuII and the target fragments purified from low-melting agarose gels. The 657 bp EcoRl/Hinf1 fragment of the Drosophila histone SAR was cloned into the SmaI site of the modified pSP64 plasmid. This SAR probe was end-labeled following digestion with EcoRl, then cut with ClaI and the resulting 347 bp fragment purified from low-melting agarose gels.
(§2) All reactions were performed in a total volume of 40 μl. A polyamide stock solution or buffer (for reference lanes) was added to an assay buffer containing 20 kcpm radiolabeled DNA, affording final concentrations of 10 mM Tris-HCl (pH 7.4), 10 mM KCl, 10 mM MgCl, 5 mM CaCl2, 0.5 mM EDTA, 0.5 mM EGTA, 1 mM DTT and 0.1% digitonine. The solutions were allowed to equilibrate for at least 2 h at room temperature. Footprinting reactions were initiated by the addition of 2 μl of a DNase stock solution (containing −100 pg DNase I in buffer) and allowed to proceed for 2 min at room temperature. The reactions were stopped by addition of 10 μl of a solution containing 1.25 M NaCl, 100 mM EDTA. Next, 5 μl of a 1% SDS solution was added, followed by 2 μl of a solution containing 1 μg poly(dA-dT), 1 μg salmon sperm DNA and 10 μg glycogen and the DNA was ethanol precipitated (20 min at −20° C.). The reactions were resuspended in 4 μl of 80% formamide loading buffer, denatured 10 min at 85° C., cooled on ice and electrophoresed on 8% polyacrylamide denaturing gels (5% cross-link, 8 M urea) at 30 W for 1 h. The gels were dried and exposed o/n at −70° C.

Test [4] concerns Drosophila histone SAR probe (clustered/long AT-tracts). Briefly: DNase I footprinting on SAR probe. In kind it is binding. The method, then:
Since satellite I is composed of exclusively A and T bases, it constitutes an ‘ideal’ binding substrate for oligopyrroles. But to obtain SAR-specific compounds, molecules are required that preferably bind its clustered, irregularly spaced AT-tracts. Binding studies were carried out with P9, P7 and P13 on the Drosophila histone SAR probe which contains the following clustered/long AT-tracts (W15N3W17N5W16N13W8NW6 where N is any base, see also FIG. 3D). […] The ratio of these two affinities is used (KappW9/KappSAR) as an empirical measure of SAR specificity. For all compounds tested thus far, this value (referred to as SAR preference factor) was around unity (Table 3).
as §1, §2

Test [5] relates to GAGA factor (GAF) function. Briefly: Feeding to developing Drosophila melanogaster of brown-dominant genotype. In kind it is in vivo. The following applies: fed to developing flies.
Test [6] deals with GAGA factor (GAF) binding site from the Ubx promoter (GAF31 probe). Briefly: DNase I footprinting on Ubx GAF binding site. From the text: Panel A: DNAse I footprinting experiment with P31 and affinity cleavage with P31E are shown on GAF31 and the Brown I probes. The GAF31 and Brown I probes contains a (AAGAG)2 motif and GAGA factor (GAF) binding site from the Ubx promoter (Biggin et al., 1988). […] The Brown I oligo (a tandem repeat) includes an (AAGAG)5 binding site and a degenerate P31 binding site (AACAC)2 as indicated. P31 concentrations used (nM) are indicated. […] Binding orientations of P31E on these probes are indicated by arrowheads on the brackets pointing towards the N-terminus of the molecule. The letter G refers the G nucleotide cleavage reaction. Panel B: DNAse I footprinting experiment with purified GAGA factor (GAF) on the GAF31 probe. Note that GAF binds both the (AAGAG)2 motif and the binding site from the Ubx promoter.
A footprint experiment was therefore carried out with this protein. The DNA probe (GAF31) used for this purpose contains besides the (AAGAG)2 motif (the target of P31) a typical promoter proximal GAF binding site derived from the Ubx gene (Biggin et al., 1988). This Ubx site contains the pentameric consensus sequence […] of GAF (Omichinski et al., 1997).
(§3) All reactions were performed in a total volume of 40 μl. […]

Test [7] concerns the target two GAGAA repeats (GAF31 probe). Briefly: DNase I footprinting on GAGAA repeats. The following applies: read-out: apparent binding constant.
Description: In the framework of a search for molecular tools to study PEV, polyamide that targets the abundant satellite V composed of GAGAA repeats (Lohe et al., 1993) was synthesised. Designing molecules that would bind to this repeat motif represented a challenge since with current knowledge, targeting of sequences containing 5′-GNG-3′ or 5′-GA-3′ with drugs composed of pyrrole and imidazole is difficult. However, successful targeting to sequences containing 5′-GTG-3′ was previously achieved using an Im-β-Im motif where β-alanine replaces the function of pyrrole (Turner et al., 1998). Since β-alanine, like pyrroles, is degenerate for A.T and T.A base pairs, we designed a compound based on these observations, to recognize a sequence composed of two tandem GAGAA repeats by systematic placement of β-alanine at the N-terminal neighbor of imidazole. The binding affinity and specificity of this compound, termed P31 (=Im-β-Im-Py-β-Im-β-Im-β-Dp), were evaluated by DNAse I footprinting. For this purpose, two different probes were examined, both containing GAGAA repeats. […] The apparent binding constant of P31 for this sequence was estimated at 0.25 nM. At higher concentrations, protection of two mismatch binding sites was observed. One of these sites contains an AAGTG motif (FIG. 5A).
GAF31 is composed of the oligonucleotides:
as §3

Test [8] concerns CACAA repeats (Brown I probe). Briefly: DNase I footprinting on CACAA repeats. In kind it is binding. From the text:
A drawback of this binding model, as opposed to conventional 2:1 drug to DNA complexes, is that P31 is expected to bind degenerate GC and CG base pairs, albeit with different affinity. The consensus sequence can thus be defined as […], where S stands for a G or C and W for A or T. To evaluate binding of P31 to CACAA repeats, we used a second probe that contains two of these repeats as well as five tandem GAGAA repeats. […] Again, it is observed than this molecule binds as a 1:1 drug to DNA complex in an orientation as indicated by arrowheads (FIG. 5A). We propose that special structural features of AT-tracts and GAGAA repeats might favor 1:1 DNA to drug complexes (see Discussion).
All reactions were performed in a total volume of 40 μl. A polyamide stock solution or buffer (for reference lanes) was added to an assay buffer containing 20 kcpm radiolabeled DNA, affording final concentrations of 10 mM Tris-HCl (pH 7.4), 10 mM KCl, 10 mM MgCl, 5 mM CaCl2, 0.5 mM EDTA, 0.5 mM EGTA, 1 mM DTT and 0.1% digitonine. The solutions were allowed to equilibrate for at least 2 h at room temperature. Footprinting reactions were initiated by the addition of 2 μl of a DNase stock solution (containing −100 pg DNase I in buffer) and allowed to proceed for 2 min at room temperature. The reactions were stopped by addition of 10 μl of a solution containing 1.25 M NaCl, 100 mM EDTA. […]

Where “and” joins values, the source holds several entries; their conditions need not be identical. Equal values may be shown once. Read-outs that look alike come from different tables or passages of the source.

Take `CN(C)CCCNC(=O)CCNC(=O)c1cc(NC(=O)c2cc(NC(=O)c3cc(NC(=O)CCNC(=O)c4cc(NC(=O)c5cc(NC(=O)c6cccn6C)cn5C)cn4C)cn3C)cn2C)cn1C` [Compound P9, PyPyPy-β-PyPyPy-β-Dp]: in test [1], the “concentration of maximal stimulation of topoisomerase II cleavage” value is 500 nM and 500 to 1000 nM; the “lower concentration for opening satellite III than P31” value is on record as “roughly 10 fold”; the “stimulation of topoisomerase II cleavage in satellite III” value is reported as “massively stimulated”; the “concentration giving massive cleavage stimulation” value worked out at 62 nM. For the same molecule, the “restriction enzyme cleavage within satellite III” value in the test with satellite III chromatin was “facilitated cleavage”. Besides, the “concentration inhibiting chromosome condensation (block at ruffle stage)” value in test [2] (120 min) was 2 µM. The “reversal of condensation inhibition by competitor oligonucleotide” value in test [2] (P9 2 μM, 500 ng of SAR-, W9- or GAGAA-oligo) is reported as “did not rescue chromatid assembly”. Moreover, the “better affinity for W9 than P7” value in [3] was 100 fold. Moreover, the Kd in test [3] (apparent dissociation constant, W9 probe, read-out: Kdapp W9) was ~0.75 nM and 0.75 nM. In test [4], the “Ratio (KappW9/KappSAR, SAR preference factor)” value was 1.4. In addition, in [4] (apparent dissociation constant, SAR probe, read-out: Kdapp SAR), the Kd worked out at 0.55 nM. For the same molecule, the “SAR specificity factor after tagging with fluorescent label” value in [4] (value of the tagged derivative) stood at 3.

`CN(C)CCCNC(=O)CCNC(=O)c1nc(NC(=O)CCNC(=O)c2nc(NC(=O)CCNC(=O)c3cc(NC(=O)c4nc(NC(=O)CCNC(=O)c5nccn5C)cn4C)cn3C)cn2C)cn1C` [Compound P31, Im-β-Im-Py-β-Im-β-Im-β-Dp]: the “effect on GAGA factor function in flies” value in test [5] is listed as “interferes with the function of the GAGA factor (GAF)”. Besides, the “concentration giving massive cleavage stimulation” value in [1] is given as 500 nM. For the same molecule, in test [1] (up to a concentration of 200 nM), the “stimulation of topoisomerase II cleavage in satellite III” value is given as “no significant reinforcement of the pattern”. In test [6], the “binding to Ubx GAF binding site” value is listed as “does not bind”. For the same molecule, the Kd in [7] worked out at 0.25 nM. Besides, in test [8], the “affinity for CACAA repeats relative to GAGAA repeats” value was “approximately five fold lower affinity”.
